Experimental data published in PubChem BioAssay AID2060626 (Molecular Pharmacology Branch, DTP, NCI, 2025).

System: 168753-222-R-J1-PDC complex spheroid viability
Experiment: Anticancer human tumor 168753-222-R-J1-PDC patient-derived bladder carcinoma cell line growth inhibition [CLK]
Settings: for IC50: curve of first compound; for viability, T/C: stronger effect = lower value
How it was run: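 Multi-cell-type spheroids combined patient-derived tumor cells with HUVEC endothelial cells and human mesenchymal stem cells. Paired agents were dosed in half-log steps down from about clinical Cmax, or from 10 microM where Cmax was unknown.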

[1] = second compound 0.0316 µM, first compound 0.0316 µM
[2] = second compound 0.0316 µM, first compound 0.1 µM
[3] = second compound 0.1 µM, first compound 0.0316 µM
[4] = second compound 0.1 µM, first compound 0.1 µM
[5] = second compound 0.316 µM, first compound 0.0316 µM
[6] = second compound 0.316 µM, first compound 0.1 µM
[7] = second compound 1 µM, first compound 0.0316 µM
[8] = second compound 1 µM, first compound 0.1 µM
[9] = second compound 3.16 µM, first compound 0.0316 µM
[10] = second compound 3.16 µM, first compound 0.1 µM
[11] = second compound 10 µM, first compound 0.0316 µM
[12] = second compound 10 µM, first compound 0.1 µM
[13] = second compound 0.0316 µM, first compound 0.316 µM
[14] = second compound 0.0316 µM, first compound 1 µM
[15] = second compound 0.0316 µM, first compound 3.16 µM
[16] = second compound 0.0316 µM, first compound 10 µM
[17] = second compound 0.1 µM, first compound 0.316 µM
[18] = second compound 0.1 µM, first compound 1 µM
[19] = second compound 0.1 µM, first compound 3.16 µM
[20] = second compound 0.1 µM, first compound 10 µM
[21] = second compound 0.316 µM, first compound 0.316 µM
[22] = second compound 0.316 µM, first compound 1 µM
[23] = second compound 0.316 µM, first compound 3.16 µM
[24] = second compound 0.316 µM, first compound 10 µM
[25] = second compound 1 µM, first compound 0.316 µM
[26] = second compound 1 µM, first compound 1 µM
[27] = second compound 1 µM, first compound 3.16 µM
[28] = second compound 1 µM, first compound 10 µM
[29] = second compound 3.16 µM, first compound 0.316 µM
[30] = second compound 3.16 µM, first compound 1 µM
[31] = second compound 3.16 µM, first compound 3.16 µM
[32] = second compound 3.16 µM, first compound 10 µM
[33] = second compound 10 µM, first compound 0.316 µM
[34] = second compound 10 µM, first compound 1 µM
[35] = second compound 10 µM, first compound 3.16 µM
[36] = second compound 10 µM, first compound 10 µM
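Note: viability measured after seven days of drug exposure.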
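Throughout, for viability, T/C: luminescence signal used as surrogate for viable cell amount; 100% = DMSO vehicle control wells.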

Q: With Cn1ncnc1[C@H]1c2n[nH]c(=O)c3cc(F)cc(c23)N[C@@H]1c1ccc(F)cc1 + CN1CCN(c2cc(C(=O)Nc3cc4cc(-c5cnn(C)c5)ccc4cn3)ccn2)CC1 as the molecule, how does the IC50 (second compound 0.0316 µM) read?
A: > 0.1 µM

Q: What about the IC50 (second compound 0.1 µM) of the same molecule?
A: 0.00408 µM

Q: And the IC50 (second compound 0.316 µM)?
A: < 0.000316 µM

Q: What about the IC50 (second compound 1 µM) of the same molecule?
A: < 0.000316 µM

Q: What about the IC50 (second compound 3.16 µM) of the same molecule?
A: < 0.000316 µM

Q: And the IC50 (second compound 10 µM)?
A: < 0.000316 µM

Q: And the viability, T/C (second compound 0.0316 µM, first compound 0.000316 µM)?
A: 90.2%

Q: And the viability, T/C (second compound 0.0316 µM, first compound 0.001 µM)?
A: 95.1%

Q: What about the viability, T/C (second compound 0.0316 µM, first compound 0.00316 µM) of the same molecule?
A: 70.5%

Q: What about the viability, T/C (second compound 0.0316 µM, first compound 0.01 µM) of the same molecule?
A: 101%

Q: And the viability, T/C [1]?
A: 97.9%

Q: And the viability, T/C [2]?
A: 58.2%

Q: And the viability, T/C (second compound 0.1 µM, first compound 0.000316 µM)?
A: 58.7%

Q: What about the viability, T/C (second compound 0.1 µM, first compound 0.001 µM) of the same molecule?
A: 72.5%

Q: And the viability, T/C (second compound 0.1 µM, first compound 0.00316 µM)?
A: 54.7%

Q: And the viability, T/C (second compound 0.1 µM, first compound 0.01 µM)?
A: 18.7%

Q: What about the viability, T/C [3] of the same molecule?
A: 25.8%

Q: And the viability, T/C [4]?
A: 56%

Q: What about the viability, T/C (second compound 0.316 µM, first compound 0.000316 µM) of the same molecule?
A: 9.67%

Q: What about the viability, T/C (second compound 0.316 µM, first compound 0.001 µM) of the same molecule?
A: 9.41%

Q: And the viability, T/C (second compound 0.316 µM, first compound 0.00316 µM)?
A: 8.77%

Q: What about the viability, T/C (second compound 0.316 µM, first compound 0.01 µM) of the same molecule?
A: 7.96%

Q: And the viability, T/C [5]?
A: 8.57%

Q: And the viability, T/C [6]?
A: 8.4%

Q: What about the viability, T/C (second compound 1 µM, first compound 0.000316 µM) of the same molecule?
A: 0.18%

Q: And the viability, T/C (second compound 1 µM, first compound 0.001 µM)?
A: 0.28%

Q: What about the viability, T/C (second compound 1 µM, first compound 0.00316 µM) of the same molecule?
A: 0.18%

Q: And the viability, T/C (second compound 1 µM, first compound 0.01 µM)?
A: 0.53%

Q: What about the viability, T/C [7] of the same molecule?
A: 0.24%

Q: What about the viability, T/C [8] of the same molecule?
A: 0.51%

Q: And the viability, T/C (second compound 3.16 µM, first compound 0.000316 µM)?
A: 1.24%

Q: What about the viability, T/C (second compound 3.16 µM, first compound 0.001 µM) of the same molecule?
A: 0.1%

Q: And the viability, T/C (second compound 3.16 µM, first compound 0.00316 µM)?
A: 0.18%

Q: And the viability, T/C (second compound 3.16 µM, first compound 0.01 µM)?
A: 0.06%

Q: What about the viability, T/C [9] of the same molecule?
A: 0.26%

Q: And the viability, T/C [10]?
A: 0.88%

Q: And the viability, T/C (second compound 10 µM, first compound 0.000316 µM)?
A: 0.11%

Q: What about the viability, T/C (second compound 10 µM, first compound 0.001 µM) of the same molecule?
A: 0.27%

Q: And the viability, T/C (second compound 10 µM, first compound 0.00316 µM)?
A: 0.25%

Q: And the viability, T/C (second compound 10 µM, first compound 0.01 µM)?
A: 0.1%

Q: And the viability, T/C [11]?
A: 0.21%

Q: What about the viability, T/C [12] of the same molecule?
A: 0.19%

Q: Which results are given for Nc1ccn(C2OC(CO)C(O)C2(F)F)c(=O)n1 (stereo unspecified) + CNC(=O)c1ccc(Nc2nc(OC3CCCC3)c3c(-c4ccc5nc(C)oc5c4)c[nH]c3n2)c(OC)c1?
A: IC50 (second compound 0.0316 µM): 0.975 µM; IC50 (second compound 0.1 µM): 0.629 µM; IC50 (second compound 0.316 µM): 0.157 µM; IC50 (second compound 1 µM): < 0.0316 µM; IC50 (second compound 3.16 µM): < 0.0316 µM; IC50 (second compound 10 µM): < 0.0316 µM; viability, T/C [1]: 95.2%; viability, T/C [2]: 73.2%; viability, T/C [13]: 48.7%; viability, T/C [14]: 57.2%; viability, T/C [15]: 51.2%; viability, T/C [16]: 37.9%; viability, T/C [3]: 88.4%; viability, T/C [4]: 75.7%; viability, T/C [17]: 50.3%; viability, T/C [18]: 49.9%; viability, T/C [19]: 34.2%; viability, T/C [20]: 25.4%; viability, T/C [5]: 84.2%; viability, T/C [6]: 64.5%; viability, T/C [21]: 28%; viability, T/C [22]: 17.1%; viability, T/C [23]: 26.8%; viability, T/C [24]: 22.1%; viability, T/C [7]: 43.5%; viability, T/C [8]: 18.9%; viability, T/C [25]: 17.9%; viability, T/C [26]: 16.4%; viability, T/C [27]: 16.9%; viability, T/C [28]: 17.4%; viability, T/C [9]: 21%; viability, T/C [10]: 18.4%; viability, T/C [29]: 18%; viability, T/C [30]: 16.8%; viability, T/C [31]: 16.4%; viability, T/C [32]: 15.5%; viability, T/C [11]: 18.2%; viability, T/C [12]: 18.4%; viability, T/C [33]: 17.4%; viability, T/C [34]: 15.4%; viability, T/C [35]: 17.1%; viability, T/C [36]: 16.2%

Q: Which results are given for COc1ccc([C@@H](O)c2cc(-c3ncnc4cc(N5CCOCC5)ccc34)c(F)cc2Cl)nn1 + CN1CCN(c2cc(C(=O)Nc3cc4cc(-c5cnn(C)c5)ccc4cn3)ccn2)CC1?
A: IC50 (second compound 0.0316 µM): 0.361 µM; IC50 (second compound 0.1 µM): 0.0475 µM; IC50 (second compound 0.316 µM): < 0.0316 µM; IC50 (second compound 1 µM): < 0.0316 µM; IC50 (second compound 3.16 µM): < 0.0316 µM; IC50 (second compound 10 µM): < 0.0316 µM; viability, T/C [1]: 95.5%; viability, T/C [2]: 82.1%; viability, T/C [13]: 55.6%; viability, T/C [14]: 19.2%; viability, T/C [15]: 11.7%; viability, T/C [16]: 7.52%; viability, T/C [3]: 63%; viability, T/C [4]: 26.1%; viability, T/C [17]: 13.6%; viability, T/C [18]: 13.1%; viability, T/C [19]: 10.1%; viability, T/C [20]: 7.24%; viability, T/C [5]: 9.76%; viability, T/C [6]: 8.36%; viability, T/C [21]: 8.98%; viability, T/C [22]: 7.9%; viability, T/C [23]: 7.78%; viability, T/C [24]: 3.67%; viability, T/C [7]: 0.16%; viability, T/C [8]: 0.12%; viability, T/C [25]: 0.13%; viability, T/C [26]: 0.07%; viability, T/C [27]: 0.79%; viability, T/C [28]: 0.13%; viability, T/C [9]: 0.05%; viability, T/C [10]: 0.08%; viability, T/C [29]: 0.15%; viability, T/C [30]: 0.05%; viability, T/C [31]: 0.09%; viability, T/C [32]: 0.54%; viability, T/C [11]: 0.04%; viability, T/C [12]: 0.81%; viability, T/C [33]: 1.23%; viability, T/C [34]: 0.1%; viability, T/C [35]: 0.4%; viability, T/C [36]: 0.47%
